Measurements published in patent US20140308317A1, “Polymeric Compounds And Methods Of Making And Using The Same” (CELLCEUTIX CORPORATION, priority 2012, published 2014).
In brackets after ≈: the same amount, converted by molar mass.

How the values were obtained:
[1] = Cytotoxicity colorimetric (tetrazolium) assay; type: cell-based, human; details: human, HepG2 cells (HB-8065), HepG2 cells; one hour with compound in serum-free media
Procedure: (§1) Cytotoxicity of the compounds was evaluated in a colorimetric assay using a transformed human liver cell line (HepG2, HB-8065) and an embryonic mouse cell line (NIH/3T3 cells, CRL-1658). This assay measures the bioreduction of a novel tetrazolium compound to a soluble formazan product by viable cells. HepG2 cells were seeded in 96 well plates at 2×10^4 cells/well in MEM medium with 10% fetal bovine serum (FBS) 24 hours prior to use. NIH/3T3 cells were seeded in 96 well plates at 2×10^4 cells/well in DMEM medium with 10% bovine calf serum (BCS) 24 hours prior to use. Cell monolayers were rinsed in serum-free media and incubated for one hour with compounds in serum-free media. After incubation, the media is replaced with serum supplemented media and live cells were measured using the Cell Titer 96 Aqueous […] Assay kit (Promega, Madison, Wis.). EC50 values were determined using a four parameter logistic equation: Y=Bottom+(Top-Bottom)/(1+10̂((LogEC50−X)*HillSlope)).
(§2) Actual results from a representative cytotoxicity assay are shown below in Table 2. Data is expressed as EC50 in μg/mL.

[2] = tested on: Klebsiella pneumoniae ATCC 13883; assay: Minimum Inhibitory Concentration (MIC), modified microbroth dilution; type: cell-based; details: Klebsiella pneumoniae, ATCC13883; K. pneumoniae (13883); overnight incubation (18 hours); read-out: MIC50 K. Pnuemnoiae
[3] = tested on: Staphylococcus aureus ATCC 27660; assay: as above; type: cell-based; details: Staphylococcus aureus, ATCC27660; S. aureus (27660); overnight incubation (18 hours); read-out: MIC50 S. aureus
[4] = tested on: Enterococcus faecalis ATCC 29212; assay: as above; type: cell-based; details: Enterococcus faecalis, ATCC29212; E. faecalis (29212); overnight incubation (18 hours); read-out: MIC50 E. faecalis
[5] = tested on: Pseudomonas aeruginosa ATCC 10145; assay: as above; type: cell-based; details: Pseudomonas aeruginosa, ATCC10145; P. aeruginosa (10145); overnight incubation (18 hours); read-out: MIC50 P. Aeruginosa
E. Coli ATCC 25922 = assay: as above; type: cell-based; details: Escherichia coli, ATCC25922; E. coli (25922); overnight incubation (18 hours); read-out: MIC50 E. coli
[6] = Cytotoxicity colorimetric (tetrazolium) assay; type: cell-based, mouse; details: mouse, NIH/3T3 cells (CRL-1658), NIH/3T3 cells; one hour with compound in serum-free media
Procedure: as §1, §2

Compound | EC50 at 1 h [1] | MIC50 [2] | MIC50 [3] | MIC50 [4] | MIC50 [5] | MIC50 (E. Coli ATCC 25922) | EC50 at 1 h [6]
NCCc1cc(CCN)cc(-c2cccc(-c3cc(CCN)cc(CCN)c3)c2)c1 [Compound 115] | > 1160 µg/mL | 50 µg/mL (≈ 124 µM) | 25 µg/mL (≈ 62.1 µM) | > 50 µg/mL | > 50 µg/mL | 25 µg/mL (≈ 62.1 µM) | 1130 µg/mL (≈ 2810 µM)
NCCc1cc(CCN)cc(-c2csc(-c3cccc(-c4nc(-c5cc(CCN)cc(CCN)c5)cs4)c3)n2)c1 [Compound 135] | 134 µg/mL (≈ 236 µM) | > 50 µg/mL | 6.25 µg/mL (≈ 11 µM) | > 50 µg/mL | 25 µg/mL (≈ 44 µM) | 50 µg/mL (≈ 87.9 µM) | 34.5 µg/mL (≈ 60.6 µM)
NCCc1cc(CCN)cc(-c2csc(-c3cccc(-c4nccs4)c3)n2)c1 [Compound 136] | 4.12 µg/mL (≈ 10.1 µM) | 50 µg/mL (≈ 123 µM) | 25 µg/mL (≈ 61.5 µM) | 50 µg/mL (≈ 123 µM) | 50 µg/mL (≈ 123 µM) | > 50 µg/mL | 250 µg/mL (≈ 615 µM)
NCCc1cccc(-c2coc(-c3cccc(-c4nc(-c5cccc(CCN)c5)co4)c3)n2)c1 [Compound 132] | 50.1 µg/mL (≈ 111 µM) | 25 µg/mL (≈ 55.5 µM) | 12.5 µg/mL (≈ 27.7 µM) | 12.5 µg/mL (≈ 27.7 µM) | 25 µg/mL (≈ 55.5 µM) | 12.5 µg/mL (≈ 27.7 µM) | 23.5 µg/mL (≈ 52.1 µM)
NCCCOc1cc(OCCCN)cc(-c2ccc(C(F)(F)c3ccc(-c4cc(OCCCN)cc(OCCCN)c4)cc3)cc2)c1 [Compound 166] | 137 µg/mL (≈ 211 µM) | 6.25 µg/mL (≈ 9.63 µM) | 0.39 µg/mL (≈ 0.601 µM) | 1.56 µg/mL (≈ 2.4 µM) | 6.25 µg/mL (≈ 9.63 µM) | 3.13 µg/mL (≈ 4.82 µM) | 84 µg/mL (≈ 129 µM)
NCCc1cc(C#Cc2ccc(C#Cc3cc(CCN)cc(CCN)c3)cc2)cc(CCN)c1 [Compound 198] | 185 µg/mL (≈ 411 µM) | 50 µg/mL (≈ 111 µM) | 25 µg/mL (≈ 55.5 µM) | 50 µg/mL (≈ 111 µM) | 50 µg/mL (≈ 111 µM) | 50 µg/mL (≈ 111 µM) | 282 µg/mL (≈ 626 µM)
NCCc1cc(C#Cc2cc(C#Cc3cc(CCN)cc(CCN)c3)c(F)cc2F)cc(CCN)c1 [Compound 192] | 554 µg/mL (≈ 1140 µM) | > 50 µg/mL | 3.13 µg/mL (≈ 6.43 µM) | 12.5 µg/mL (≈ 25.7 µM) | 50 µg/mL (≈ 103 µM) | 12.5 µg/mL (≈ 25.7 µM) | 542 µg/mL (≈ 1110 µM)
N=C(N)NCCc1cc(C#Cc2cc(C#Cc3cc(CCNC(=N)N)cc(CCNC(=N)N)c3)c(F)cc2F)cc(CCNC(=N)N)c1 [Compound 193] | 178 µg/mL (≈ 272 µM) | 1.56 µg/mL (≈ 2.38 µM) | 0.39 µg/mL (≈ 0.596 µM) | 1.56 µg/mL (≈ 2.38 µM) | 6.25 µg/mL (≈ 9.55 µM) | 1.56 µg/mL (≈ 2.38 µM) | 62.4 µg/mL (≈ 95.3 µM)
N=C(N)NCCc1cc(C#Cc2ccc(C#Cc3cc(CCNC(=N)N)cc(CCNC(=N)N)c3)cc2)cc(CCNC(=N)N)c1 [Compound 199] | 135 µg/mL (≈ 218 µM) | 1.56 µg/mL (≈ 2.52 µM) | 0.78 µg/mL (≈ 1.26 µM) | 12.5 µg/mL (≈ 20.2 µM) | 12.5 µg/mL (≈ 20.2 µM) | 1.56 µg/mL (≈ 2.52 µM) | 116 µg/mL (≈ 188 µM)
NCCc1cccc(-c2cc(-c3cccc(-c4cc(-c5cccc(CCN)c5)on4)c3)no2)c1 [Compound 128] | 47 µg/mL (≈ 104 µM) | 25 µg/mL (≈ 55.5 µM) | 1.56 µg/mL (≈ 3.46 µM) | 1.56 µg/mL (≈ 3.46 µM) | 25 µg/mL (≈ 55.5 µM) | 12.5 µg/mL (≈ 27.7 µM) | 22.3 µg/mL (≈ 49.5 µM)
NCCCOc1cc(OCCCN)cc(-c2ccc3sc4ccc(-c5cc(OCCCN)c(OCCCN)c(OCCCN)c5)cc4c3c2)c1 [Compound 182] | 173 µg/mL (≈ 246 µM) | 25 µg/mL (≈ 35.6 µM) | 1.56 µg/mL (≈ 2.22 µM) | 6.25 µg/mL (≈ 8.9 µM) | 12.5 µg/mL (≈ 17.8 µM) | 6.25 µg/mL (≈ 8.9 µM) | 78.2 µg/mL (≈ 111 µM)
NCCCn1c2cc(-c3cccc(N)c3)ccc2c2ccc(-c3cccc(N)c3)cc21 [Compound 159] | 64.7 µg/mL (≈ 159 µM) | 12.5 µg/mL (≈ 30.7 µM) | 1.56 µg/mL (≈ 3.84 µM) | 12.5 µg/mL (≈ 30.7 µM) | 100 µg/mL (≈ 246 µM) | 12.5 µg/mL (≈ 30.7 µM) | 45.7 µg/mL (≈ 112 µM)
N=C(N)NCCc1cc(CCNC(=N)N)cc(-c2cccc(-c3cc(CCNC(=N)N)cc(CCNC(=N)N)c3)c2)c1 [Compound 116] | 974 µg/mL (≈ 1710 µM) | 25 µg/mL (≈ 43.8 µM) | 6.25 µg/mL (≈ 11 µM) | 25 µg/mL (≈ 43.8 µM) | 25 µg/mL (≈ 43.8 µM) | 6.25 µg/mL (≈ 11 µM) | 676 µg/mL (≈ 1180 µM)
